# Laboratory results: ChEMBL document CHEMBL3885881, “DrugMatrix”
# Species on record: Rattus norvegicus
# Experiment: DrugMatrix - Regimen: Daily Repeat
# Type: toxicity, organism-based, Sprague-Dawley
# Set-up: regimen Daily Repeat, gender Male, age 6-8 weeks
# Settings: in vivo, po, route oral GAVAGE, […]; for ABSOLUTE BASOPHIL / ABSOLUTE EOSINOPHIL / ABSOLUTE LYMPHOCYTE / ABSOLUTE MONOCYTE / ABSOLUTE SEGMENTED NEUTROPHIL / BASOPHIL / EOSINOPHIL / ERYTHROCYTE COUNT / HEMATOCRIT / HEMOGLOBIN / LEUKOCYTE COUNT / LYMPHOCYTE / MEAN CORPUSCULAR HEMOGLOBIN / MEAN CORPUSCULAR HEMOGLOBIN CONCENTRATION / MEAN CORPUSCULAR VOLUME / MONOCYTE / NEUTROPHIL / NUCLEATED RED BLOOD CELLS / PLATELET COUNT: tissue Blood; for ALANINE AMINOTRANSFERASE / ALBUMIN / ALKALINE PHOSPHATASE / ASPARTATE AMINOTRANSFERASE / BLOOD UREA NITROGEN / CARBON DIOXIDE / CHLORIDE / CHOLESTEROL / CREATINE PHOSPHOKINASE / CREATININE / GLUCOSE / LACTATE DEHYDROGENASE / LIPASE / PHOSPHORUS / POTASSIUM / SODIUM / TOTAL BILIRUBIN / TOTAL PROTEIN / URIC ACID: tissue Plasma
# [1] = 10 mg/kg, 72 h, dose level Low, time 3 day
# [2] = 10 mg/kg, 120 h, dose level Low, time 5 day
# [3] = 75 mg/kg, 72 h, dose level High, time 3 day
# [4] = 75 mg/kg, 120 h, dose level High, time 5 day
smiles,measurement,setting,value
NC(=O)N1C(=O)/C(=C(\O)c2cccs2)c2cc(Cl)ccc21 [TENIDAP],ABSOLUTE BASOPHIL,[1],0 CELLS/uL
same,ABSOLUTE EOSINOPHIL,[1],204 CELLS/uL
same,ABSOLUTE LYMPHOCYTE,[1],13523 CELLS/uL
same,ABSOLUTE MONOCYTE,[1],155.33 CELLS/uL
same,ABSOLUTE SEGMENTED NEUTROPHIL,[1],1651 CELLS/uL
same,BASOPHIL,[1],0%
same,EOSINOPHIL,[1],1.33%
same,ERYTHROCYTE COUNT,[1],5.32 x10E6/uL
same,HEMATOCRIT,[1],33.53%
same,HEMOGLOBIN,[1],13.33 G/DL
same,LEUKOCYTE COUNT,[1],15.53 x10E3/uL
same,LYMPHOCYTE,[1],86.67%
same,MEAN CORPUSCULAR HEMOGLOBIN,[1],25.03 pg
same,MEAN CORPUSCULAR HEMOGLOBIN CONCENTRATION,[1],39.73 G/DL
same,MEAN CORPUSCULAR VOLUME,[1],62.97 fL
same,MONOCYTE,[1],1%
same,NEUTROPHIL,[1],11%
same,NUCLEATED RED BLOOD CELLS,[1],0 /100WBC
same,PLATELET COUNT,[1],1066.67 x10E3/uL
same,ALANINE AMINOTRANSFERASE,[1],83.33 u/L
same,ALBUMIN,[1],3.87 G/DL
same,ALKALINE PHOSPHATASE,[1],429.33 u/L
same,ASPARTATE AMINOTRANSFERASE,[1],109.67 u/L
same,BLOOD UREA NITROGEN,[1],11 mg/dL
same,CARBON DIOXIDE,[1],23.67 mmol/L
same,CHLORIDE,[1],102.67 MEQ/L
same,CHOLESTEROL,[1],63.67 mg/dL
same,CREATINE PHOSPHOKINASE,[1],779.67 u/L
same,CREATININE,[1],0.2 mg/dL
same,GLUCOSE,[1],169 mg/dL
same,LACTATE DEHYDROGENASE,[1],223.67 u/L
same,LIPASE,[1],12 u/L
same,PHOSPHORUS,[1],11.47 mg/dL
same,POTASSIUM,[1],5.98 MEQ/L
same,SODIUM,[1],143.97 MEQ/L
same,TOTAL BILIRUBIN,[1],0.17 mg/dL
same,TOTAL PROTEIN,[1],5.27 G/DL
same,URIC ACID,[1],1.43 mg/dL
same,ABSOLUTE BASOPHIL,[2],0 CELLS/uL
same,ABSOLUTE EOSINOPHIL,[2],83.67 CELLS/uL
same,ABSOLUTE LYMPHOCYTE,[2],10624.67 CELLS/uL
same,ABSOLUTE MONOCYTE,[2],83.67 CELLS/uL
same,ABSOLUTE SEGMENTED NEUTROPHIL,[2],1674.67 CELLS/uL
same,BASOPHIL,[2],0%
same,EOSINOPHIL,[2],0.67%
same,ERYTHROCYTE COUNT,[2],5.4 x10E6/uL
same,HEMATOCRIT,[2],33.6%
same,HEMOGLOBIN,[2],13.33 G/DL
same,LEUKOCYTE COUNT,[2],12.47 x10E3/uL
same,LYMPHOCYTE,[2],85.33%
same,MEAN CORPUSCULAR HEMOGLOBIN,[2],24.7 pg
same,MEAN CORPUSCULAR HEMOGLOBIN CONCENTRATION,[2],39.67 G/DL
same,MEAN CORPUSCULAR VOLUME,[2],62.27 fL
same,MONOCYTE,[2],0.67%
same,NEUTROPHIL,[2],13.33%
same,NUCLEATED RED BLOOD CELLS,[2],0 /100WBC
same,PLATELET COUNT,[2],1241 x10E3/uL
same,ALANINE AMINOTRANSFERASE,[2],56.33 u/L
same,ALBUMIN,[2],4.13 G/DL
same,ALKALINE PHOSPHATASE,[2],448.67 u/L
same,ASPARTATE AMINOTRANSFERASE,[2],103.33 u/L
same,BLOOD UREA NITROGEN,[2],13 mg/dL
same,CARBON DIOXIDE,[2],33.67 mmol/L
same,CHLORIDE,[2],100.33 MEQ/L
same,CHOLESTEROL,[2],58.33 mg/dL
same,CREATINE PHOSPHOKINASE,[2],442.67 u/L
same,CREATININE,[2],0.21 mg/dL
same,GLUCOSE,[2],155 mg/dL
same,LACTATE DEHYDROGENASE,[2],736.33 u/L
same,LIPASE,[2],11 u/L
same,PHOSPHORUS,[2],11.1 mg/dL
same,POTASSIUM,[2],6.31 MEQ/L
same,SODIUM,[2],144.37 MEQ/L
same,TOTAL BILIRUBIN,[2],0.17 mg/dL
same,TOTAL PROTEIN,[2],5.93 G/DL
same,URIC ACID,[2],1.33 mg/dL
same,ABSOLUTE BASOPHIL,[3],0 CELLS/uL
same,ABSOLUTE EOSINOPHIL,[3],72 CELLS/uL
same,ABSOLUTE LYMPHOCYTE,[3],18447.67 CELLS/uL
same,ABSOLUTE MONOCYTE,[3],586.33 CELLS/uL
same,ABSOLUTE SEGMENTED NEUTROPHIL,[3],3327.33 CELLS/uL
same,BASOPHIL,[3],0%
same,EOSINOPHIL,[3],0.33%
same,ERYTHROCYTE COUNT,[3],5.15 x10E6/uL
same,HEMATOCRIT,[3],32.13%
same,HEMOGLOBIN,[3],13.03 G/DL
same,LEUKOCYTE COUNT,[3],22.43 x10E3/uL
same,LYMPHOCYTE,[3],82%
same,MEAN CORPUSCULAR HEMOGLOBIN,[3],25.3 pg
same,MEAN CORPUSCULAR HEMOGLOBIN CONCENTRATION,[3],40.63 G/DL
same,MEAN CORPUSCULAR VOLUME,[3],62.33 fL
same,MONOCYTE,[3],2.67%
same,NEUTROPHIL,[3],15%
same,NUCLEATED RED BLOOD CELLS,[3],0 /100WBC
same,PLATELET COUNT,[3],1275.33 x10E3/uL
same,ALANINE AMINOTRANSFERASE,[3],41.67 u/L
same,ALBUMIN,[3],3.37 G/DL
same,ALKALINE PHOSPHATASE,[3],301 u/L
same,ASPARTATE AMINOTRANSFERASE,[3],107.33 u/L
same,BLOOD UREA NITROGEN,[3],11.33 mg/dL
same,CARBON DIOXIDE,[3],22.33 mmol/L
same,CHLORIDE,[3],100.33 MEQ/L
same,CHOLESTEROL,[3],64.67 mg/dL
same,CREATINE PHOSPHOKINASE,[3],1284.33 u/L
same,CREATININE,[3],0.21 mg/dL
same,GLUCOSE,[3],168.67 mg/dL
same,LACTATE DEHYDROGENASE,[3],492.67 u/L
same,LIPASE,[3],10 u/L
same,PHOSPHORUS,[3],11.63 mg/dL
same,POTASSIUM,[3],6.52 MEQ/L
same,SODIUM,[3],144.2 MEQ/L
same,TOTAL BILIRUBIN,[3],0.13 mg/dL
same,TOTAL PROTEIN,[3],5.17 G/DL
same,URIC ACID,[3],2.97 mg/dL
same,ABSOLUTE BASOPHIL,[4],0 CELLS/uL
same,ABSOLUTE EOSINOPHIL,[4],26.67 CELLS/uL
same,ABSOLUTE LYMPHOCYTE,[4],9823.33 CELLS/uL
same,ABSOLUTE MONOCYTE,[4],49.33 CELLS/uL
same,ABSOLUTE SEGMENTED NEUTROPHIL,[4],1634 CELLS/uL
same,BASOPHIL,[4],0%
same,EOSINOPHIL,[4],0.33%
same,ERYTHROCYTE COUNT,[4],4.78 x10E6/uL
same,HEMATOCRIT,[4],30.53%
same,HEMOGLOBIN,[4],12.13 G/DL
same,LEUKOCYTE COUNT,[4],11.53 x10E3/uL
same,LYMPHOCYTE,[4],87.67%
same,MEAN CORPUSCULAR HEMOGLOBIN,[4],25.37 pg
same,MEAN CORPUSCULAR HEMOGLOBIN CONCENTRATION,[4],39.73 G/DL
same,MEAN CORPUSCULAR VOLUME,[4],63.83 fL
same,MONOCYTE,[4],0.67%
same,NEUTROPHIL,[4],11.33%
same,NUCLEATED RED BLOOD CELLS,[4],0.33 /100WBC
same,PLATELET COUNT,[4],1185.67 x10E3/uL
same,ALANINE AMINOTRANSFERASE,[4],35.67 u/L
same,ALBUMIN,[4],3.53 G/DL
same,ALKALINE PHOSPHATASE,[4],211 u/L
same,ASPARTATE AMINOTRANSFERASE,[4],95 u/L
same,BLOOD UREA NITROGEN,[4],13.67 mg/dL
same,CARBON DIOXIDE,[4],33 mmol/L
same,CHLORIDE,[4],103.33 MEQ/L
same,CHOLESTEROL,[4],68 mg/dL
same,CREATINE PHOSPHOKINASE,[4],655 u/L
same,CREATININE,[4],0.26 mg/dL
same,GLUCOSE,[4],158 mg/dL
same,LACTATE DEHYDROGENASE,[4],243 u/L
same,LIPASE,[4],11 u/L
same,PHOSPHORUS,[4],9.87 mg/dL
same,POTASSIUM,[4],4.94 MEQ/L
same,SODIUM,[4],147 MEQ/L
same,TOTAL BILIRUBIN,[4],0.2 mg/dL
same,TOTAL PROTEIN,[4],5.43 G/DL
same,URIC ACID,[4],1.03 mg/dL
